From PubChem BioAssay (NCI)
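Five concentrations, 48 hours, 96-well plates. TGI is the concentration that stops growth completely.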

Legend:
Experiment in all cases: NCI tumour cell line growth inhibition, 48 h
[1] = test system: NCI-H226 lung
[2] = test system: U251 CNS
[3] = test system: UO-31 renal
[4] = test system: NCI-H460 lung
[5] = test system: XF 498 CNS
[6] = test system: CAKI-1 renal
[7] = test system: SK-OV-3 ovarian
[8] = test system: OVCAR-8 ovarian
[9] = test system: SW-620 colon
[10] = test system: DMS 273 small cell lung
[11] = test system: DLD-1 colon
[12] = test system: P388 leukemia
[13] = test system: SNB-78 CNS
[14] = test system: NCI/ADR-RES ovarian
[15] = test system: HOP-18 NSCLC
[16] = test system: SK-MEL-2 melanoma
[17] = test system: P388/ADR leukemia
[18] = test system: HCT-116 colon
[19] = test system: HT29 colon
[20] = test system: CCRF-CEM leukemia
[21] = test system: K-562 leukemia
[22] = test system: UACC-257 melanoma
[23] = test system: EKVX NSCLC
[24] = test system: HOP-92 NSCLC
[25] = test system: UACC-62 melanoma
[26] = test system: A498 renal
[27] = test system: NCI-H23 lung
[28] = test system: SNB-19 CNS
[29] = test system: A549 NSCLC
[30] = test system: KM20L2 colon
[31] = test system: SN12C renal
[32] = test system: MALME-3M melanoma
[33] = test system: HCT-15 colon
[34] = test system: SF-539 CNS
[35] = test system: OVCAR-4 ovarian
[36] = test system: SN12K1 renal
[37] = test system: KM12 colon
[38] = test system: MCF7 breast
[39] = test system: RXF 393 renal
[40] = test system: NCI-H522 lung
[41] = test system: OVCAR-3 ovarian
[42] = test system: COLO 205 colon
[43] = test system: IGROV1 ovarian
[44] = test system: OVCAR-5 ovarian
[45] = test system: HCC-2998 colon
[46] = test system: HL-60(TB) leukemia
[47] = test system: M19-MEL melanoma
[48] = test system: HOP-62 NSCLC
[49] = test system: MOLT-4 leukemia
[50] = test system: RPMI-8226 leukemia
[51] = test system: SK-MEL-28 melanoma
[52] = test system: SK-MEL-5 melanoma
[53] = test system: SF-268 CNS
[54] = test system: LOX IMVI melanoma
[55] = test system: SNB-75 CNS
[56] = test system: SF-295 CNS
[57] = test system: DMS 114 small cell lung

`Nc1nc2[nH]c(=O)cnc2c(=O)[nH]1` was tested, and the TGI [1] was over 125 µM, the TGI [2] was over 125 µM and the TGI [3] was over 125 µM. The TGI [4] was over 125 µM, the TGI [5] was over 125 µM and the TGI [6] was over 125 µM. For the same molecule, the TGI [7] was over 125 µM, the TGI [8] was over 125 µM and the TGI [9] was over 125 µM. The TGI [10] was over 125 µM, the TGI [11] was over 125 µM and the TGI [12] was over 125 µM. It also gave a TGI [13] of over 125 µM, a TGI [14] of over 125 µM and a TGI [15] of over 5.8 µM. The TGI [16] was over 125 µM, the TGI [17] was over 125 µM and the TGI [18] was over 125 µM. The TGI [19] was over 125 µM, the TGI [20] was over 125 µM and the TGI [21] was over 125 µM. The TGI [22] was over 125 µM, the TGI [23] was over 125 µM and the TGI [24] was over 125 µM. The TGI [25] was over 125 µM, the TGI [26] was over 125 µM and the TGI [27] was over 125 µM. The TGI [28] was over 125 µM, the TGI [29] was over 125 µM and the TGI [30] was over 91.4 µM. The TGI [31] was over 125 µM, the TGI [32] was over 125 µM and the TGI [33] was over 78.9 µM. The TGI [34] was over 125 µM, the TGI [35] was over 125 µM and the TGI [36] was over 125 µM. The TGI [37] was over 125 µM, the TGI [38] was over 125 µM and the TGI [39] was over 125 µM. For the same molecule, the TGI [40] was over 19.8 µM, the TGI [41] was over 125 µM and the TGI [42] was over 125 µM. The TGI [43] was over 125 µM, the TGI [44] was over 107 µM and the TGI [45] was over 125 µM. It also gave a TGI [46] of over 125 µM, a TGI [47] of over 85.2 µM and a TGI [48] of over 125 µM. For the same molecule, the TGI [49] was over 125 µM, the TGI [50] was over 125 µM and the TGI [51] was over 125 µM. For the same molecule, the TGI [52] was over 125 µM, the TGI [53] was over 125 µM and the TGI [54] was over 125 µM. The TGI [55] was over 125 µM, the TGI [56] was over 125 µM and the TGI [57] was over 125 µM.
With `CCCCCOc1ccc(C=Nc2ccc(-c3ccc(N=Cc4ccc(OCCCCC)cc4)c(OC)c3)cc2OC)cc1` the TGI [1] was over 100 µM, the TGI [2] was over 100 µM and the TGI [3] was over 100 µM. The TGI [4] was over 100 µM, the TGI [5] was over 100 µM and the TGI [7] was over 100 µM. The TGI [8] was over 100 µM, the TGI [9] was over 100 µM and the TGI [10] was over 100 µM. The TGI [11] was over 100 µM, the TGI [12] was over 100 µM and the TGI [13] was over 100 µM. The TGI [14] was over 100 µM, the TGI [15] was over 100 µM and the TGI [16] was over 100 µM. For the same molecule, the TGI [18] was over 100 µM, the TGI [19] was over 100 µM and the TGI [20] was over 100 µM. It also gave a TGI [21] of over 31.6 µM, a TGI [22] of over 100 µM and a TGI [23] of over 100 µM. The TGI [24] was over 100 µM, the TGI [25] was over 100 µM and the TGI [26] was over 100 µM. The TGI [27] was over 100 µM, the TGI [28] was over 100 µM and the TGI [29] was over 100 µM. The TGI [30] was over 100 µM, the TGI [31] was over 100 µM and the TGI [32] was over 100 µM. The TGI [33] was over 100 µM, the TGI [34] was over 100 µM and the TGI [35] was over 31.6 µM. The TGI [36] was over 100 µM, the TGI [37] was over 100 µM and the TGI [38] was over 100 µM. For the same molecule, the TGI [39] was over 100 µM, the TGI [40] was over 100 µM and the TGI [41] was over 100 µM. The TGI [42] was over 100 µM, the TGI [43] was over 100 µM and the TGI [44] was over 100 µM. It also gave a TGI [45] of over 100 µM, a TGI [46] of over 100 µM and a TGI [47] of over 100 µM. The TGI [48] was over 100 µM, the TGI [49] was over 100 µM and the TGI [50] was over 100 µM. The TGI [51] was over 100 µM, the TGI [52] was over 100 µM and the TGI [53] was over 100 µM. The TGI [54] was over 100 µM, the TGI [55] was over 100 µM and the TGI [56] was over 100 µM. For the same molecule, the TGI [57] was over 100 µM.
`CN(C)CCN=C1c2ccccc2-c2c(=O)n(CCN(C)C)c(O)c3cccc1c23` was tested, and the TGI [1] was 3.35 µM, the TGI [2] was 0.752 µM and the TGI [3] was 3.97 µM. It also gave a TGI [4] of 0.339 µM, a TGI [5] of 0.922 µM and a TGI [6] of 2.7 µM. The TGI [7] was 1.4 µM, the TGI [8] was 0.433 µM and the TGI [9] was 0.493 µM. For the same molecule, the TGI [10] was 0.508 µM, the TGI [11] was 0.217 µM and the TGI [13] was 1.73 µM. For the same molecule, the TGI [14] was 0.289 µM, the TGI [15] was 0.603 µM and the TGI [16] was 0.857 µM. For the same molecule, the TGI [18] was 0.432 µM, the TGI [19] was 0.257 µM and the TGI [20] was 10.5 µM. For the same molecule, the TGI [22] was 1.25 µM, the TGI [23] was 0.987 µM and the TGI [24] was 0.563 µM. It also gave a TGI [25] of 0.734 µM, a TGI [26] of 2.19 µM and a TGI [27] of 0.258 µM. For the same molecule, the TGI [28] was 1.73 µM, the TGI [29] was 0.461 µM and the TGI [30] was 0.783 µM. It also gave a TGI [31] of 0.674 µM, a TGI [32] of 1.6 µM and a TGI [33] of 0.245 µM. For the same molecule, the TGI [34] was 1.82 µM, the TGI [35] was 0.154 µM and the TGI [36] was 0.851 µM. It also gave a TGI [37] of 1.25 µM, a TGI [38] of 0.944 µM and a TGI [39] of 0.085 µM. It also gave a TGI [40] of 0.315 µM, a TGI [41] of 0.689 µM and a TGI [42] of 0.27 µM. For the same molecule, the TGI [43] was 0.616 µM, the TGI [44] was 0.794 µM and the TGI [45] was 0.494 µM. For the same molecule, the TGI [46] was 0.592 µM, the TGI [48] was 4.04 µM and the TGI [49] was 28 µM. It also gave a TGI [50] of 12.9 µM, a TGI [51] of 0.862 µM and a TGI [52] of 1.95 µM. For the same molecule, the TGI [53] was 0.578 µM, the TGI [54] was 0.185 µM and the TGI [55] was 0.487 µM. For the same molecule, the TGI [56] was 0.605 µM and the TGI [57] was 0.499 µM.
`O=[N+]([O-])c1ccc2[nH]c3c(-c4ccccc4)nccc3c2c1` was tested, and the TGI [1] was 50.5 µM, the TGI [2] was over 64.9 µM and the TGI [3] was 44.4 µM. It also gave a TGI [4] of 40.9 µM, a TGI [5] of over 61.7 µM and a TGI [7] of 55.7 µM. It also gave a TGI [8] of over 58.7 µM, a TGI [9] of over 89.7 µM and a TGI [10] of 18.1 µM. The TGI [11] was over 94.3 µM, the TGI [12] was over 47.3 µM and the TGI [13] was 93.1 µM. The TGI [14] was over 65.1 µM, the TGI [15] was 61.9 µM and the TGI [16] was 76.6 µM. It also gave a TGI [17] of 31.4 µM, a TGI [18] of over 51.8 µM and a TGI [19] of over 100 µM. For the same molecule, the TGI [20] was 62.7 µM, the TGI [21] was over 100 µM and the TGI [22] was 89.4 µM. It also gave a TGI [23] of over 79.3 µM, a TGI [24] of 65.9 µM and a TGI [25] of 38.6 µM. It also gave a TGI [26] of over 100 µM, a TGI [27] of over 100 µM and a TGI [28] of 58.5 µM. The TGI [29] was over 62 µM, the TGI [30] was over 100 µM and the TGI [31] was over 84.6 µM. It also gave a TGI [32] of 50.7 µM, a TGI [33] of over 74.7 µM and a TGI [34] of over 100 µM. It also gave a TGI [35] of over 63.1 µM, a TGI [36] of 79.9 µM and a TGI [37] of over 100 µM. It also gave a TGI [38] of over 60.3 µM, a TGI [39] of over 96.2 µM and a TGI [40] of 37.4 µM. For the same molecule, the TGI [41] was 39.4 µM, the TGI [42] was over 86.8 µM and the TGI [43] was 48.6 µM. For the same molecule, the TGI [44] was over 100 µM, the TGI [45] was 71 µM and the TGI [46] was 26.4 µM. The TGI [47] was over 78.4 µM, the TGI [48] was 43 µM and the TGI [49] was 16.4 µM. The TGI [50] was over 100 µM, the TGI [51] was over 85.3 µM and the TGI [52] was over 61.1 µM. For the same molecule, the TGI [53] was over 80 µM, the TGI [54] was over 100 µM and the TGI [55] was 38.3 µM. The TGI [56] was 45.7 µM and the TGI [57] was over 87.2 µM.
